≈ marks a conversion by molar mass, not a printed value.

What all share (format): functional
For assay [1], the system named is Staphylococcus aureus. The assay is described as follows: Antibacterial activity against Staphylococcus aureus after 24 hr by broth serial microdilution method.
Assay [2] deals with Bacillus subtilis. The assay is described as follows: Antibacterial activity against Bacillus subtilis after 24 hr by broth serial microdilution method. For orientation: Broth dilution looks for growth in wells or tubes with falling amounts of substance.
For assay [3], the system named is Salmonella typhi. The assay is described as follows: Antibacterial activity against Salmonella enterica subsp. enterica serovar Typhi after 24 hr by broth serial microdilution method.
For assay [4], the system named is Aspergillus niger. Description: Antifungal activity against Aspergillus niger by broth serial microdilution method.
The subject of assay [5] is Klebsiella pneumoniae. Description: Antibacterial activity against Klebsiella pneumoniae after 24 hr by broth serial microdilution method.

The term MIC denotes the least concentration at which growth counts as inhibited. For `Nc1nc(NCC(=O)NC(=S)Nc2nc3ccccc3s2)c2ncn(S(=O)(=O)c3ccccc3)c2n1`, the MIC in assay [1] was 560 µM (≈ 302 µg/mL); in assay [2], 1290 µM (≈ 696 µg/mL); in assay [3], 560 µM (≈ 302 µg/mL); in assay [4], 550 µM (≈ 297 µg/mL); in assay [5] it was 550 µM (≈ 297 µg/mL).
As for `Nc1nc(NCC(=O)NC(=S)Nc2nc3c(Cl)cccc3s2)c2ncn(S(=O)(=O)c3ccccc3)c2n1`, the MIC was 350 µM (≈ 201 µg/mL) in assay [1]; 350 µM (≈ 201 µg/mL) in assay [2]; 350 µM (≈ 201 µg/mL) in assay [3]; 350 µM (≈ 201 µg/mL) in assay [4]; 170 µM (≈ 97.6 µg/mL) in assay [5].
`Nc1nc(NCC(=O)NC(=S)Nc2nc3cc([N+](=O)[O-])ccc3s2)c2ncn(S(=O)(=O)c3ccccc3)c2n1`: the MIC in assay [1], in assay [2], in assay [3], in assay [4] and in assay [5] was 510 µM (≈ 298 µg/mL) in each case.
With `Nc1nc(NCC(=O)NC(=S)Nc2nc3c([N+](=O)[O-])cccc3s2)c2ncn(S(=O)(=O)c3ccccc3)c2n1`, the MIC in assay [1], in assay [2], in assay [3], in assay [4] and in assay [5] was 510 µM (≈ 298 µg/mL) in each case.
Consider `Nc1nc(NCC(=O)NC(=S)Nc2nc3ccc(F)cc3s2)c2ncn(S(=O)(=O)c3ccccc3)c2n1`, for which the MIC in assay [1] stood at 530 µM (≈ 296 µg/mL); in assay [2], 360 µM (≈ 201 µg/mL); in assay [3] it was 360 µM (≈ 201 µg/mL); in assay [4], 360 µM (≈ 201 µg/mL); in assay [5], 180 µM (≈ 100 µg/mL).
Regarding `COc1ccc2nc(NC(=S)NC(=O)CNc3nc(N)nc4c3ncn4S(=O)(=O)c3ccccc3)sc2c1`, the MIC came to 350 µM (≈ 199 µg/mL) in assay [1]; 180 µM (≈ 103 µg/mL) in assay [2]; 540 µM (≈ 308 µg/mL) in assay [3]; 180 µM (≈ 103 µg/mL) in assay [4]; 350 µM (≈ 199 µg/mL) in assay [5].
For the compound `Nc1nc(NCC(=O)NC(=S)Nc2nc3ccc(Cl)cc3s2)c2ncn(S(=O)(=O)c3ccccc3)c2n1`, the minimal inhibitory concentration (MIC) in assay [1] is 520 µM (≈ 299 µg/mL); in assay [2], 350 µM (≈ 201 µg/mL); in assay [3], 530 µM (≈ 304 µg/mL); in assay [4], 350 µM (≈ 201 µg/mL); in assay [5], 350 µM (≈ 201 µg/mL).
With `Cc1ccc2nc(NC(=S)NC(=O)CNc3nc(N)nc4c3ncn4S(=O)(=O)c3ccccc3)sc2c1`, the MIC worked out at 540 µM (≈ 299 µg/mL) in assay [1]; 540 µM (≈ 299 µg/mL) in assay [2]; 530 µM (≈ 293 µg/mL) in assay [3]; 540 µM (≈ 299 µg/mL) in assay [4]; 540 µM (≈ 299 µg/mL) in assay [5].
In the case of `Nc1nc(NCC(=O)NC(=S)Nc2nc3ccc([N+](=O)[O-])cc3s2)c2ncn(S(=O)(=O)c3ccccc3)c2n1`, the MIC in assay [1], in assay [2], in assay [3], in assay [4] and in assay [5] was 510 µM (≈ 298 µg/mL) each time.
On to `COc1ccc2sc(NC(=S)NC(=O)CNc3nc(N)nc4c3ncn4S(=O)(=O)c3ccccc3)nc2c1`, for which the MIC in assay [1] is 530 µM (≈ 302 µg/mL); in assay [2] it was 350 µM (≈ 199 µg/mL); in assay [3], 350 µM (≈ 199 µg/mL); in assay [4], 350 µM (≈ 199 µg/mL); in assay [5] it was 530 µM (≈ 302 µg/mL).
With `CC1(C)S[C@@H]2[C@H](NC(=O)[C@H](N)c3ccccc3)C(=O)N2[C@H]1C(=O)O` [AMPICILLIN], the MIC in assay [1] is 130 µM (≈ 45.4 µg/mL); in assay [2] it was 270 µM (≈ 94.3 µg/mL); in assay [3] it was 200 µM (≈ 69.9 µg/mL); in assay [5], 130 µM (≈ 45.4 µg/mL).
Consider `O=C(O)c1cn(C2CC2)c2cc(N3CCNCC3)c(F)cc2c1=O` [CIPROFLOXACIN], for which the MIC in assay [1] turned out to be 190 µM (≈ 63 µg/mL); in assay [2] it was 250 µM (≈ 82.8 µg/mL); in assay [3], 190 µM (≈ 63 µg/mL); in assay [5], 120 µM (≈ 39.8 µg/mL).
For `OC(Cn1cncn1)(Cn1cncn1)c1ccc(F)cc1F` [FLUCONAZOLE], the lowest concentration to inhibit growth in assay [4] (MIC) was 350 µM (≈ 107 µg/mL).
